Experimental data taken from patent US20170056621A1, “LOCAL ADMINISTRATION OF DRUGS FOR THE TREATMENT OF ASTHMA” (Mercator MedSystems, Inc., priority 2015, published 2017).

What was measured:
[1] = test system: porcine bronchi; test: Toxicity and histopathological evaluation after injections in all lobes of the lungs of porcine subjects; format: in vivo
Protocol: Four porcine subjects were treated with two different drugs to test pharmacokinetics and toxicity in porcine bronchi. Dexamethasone was administered to 2 animals at low (1 mg/mL), medium (2 mg/mL), and high (4 mg/mL) doses. The other drug, α-1-antitrypsin (Alpha-1-antitrypsin or A1AT), was administered to the remaining animals at low (2 mg/mL), medium (10 mg/mL), and high (50 mg/mL) doses. The drugs were administered via injections in all lobes of the lungs at the varying dosages.
All animals survived until a scheduled termination and were sacrificed on day 30. All four animals had limited necropsies completed.
This group was comprised of 2 animals. Both animals received low dose treatment in the right upper and middle lung lobes, and mid dose treatment in the right lower lung lobe. One subject received high dose treatment in the left upper lung lobe. Another subject received high dose treatment in the left upper and lower lung lobes.
This group was comprised of 2 animals. Both animals received low dose treatment in the right upper and middle lung lobes, and mid dose treatment in the right lower lung lobe. One subject received high dose treatment in the left lower lung lobe, and the other received high dose treatment in the left upper lung lobe.

[2] = test system: bronchial walls; test: Bronchial wall injections in a porcine subject: bronchoconstriction challenge and relief; format: in vivo; conditions: for Effect of injection into methacholine-narrowed segments (bronchodilation): 0.1 to 0.5 mL injected into narrowed bronchial segments
Protocol: In another animal study, one porcine subject was utilized. The animal received multiple injections in the bronchial wall of sub-selected bronchi. First injections of methacholine in concentrations of 0.3 or 3.0 mg/mL and volumes of 0.1 to 0.5 mL were made into bronchial walls throughout the airway tree.

[3] = oral administration, cited from earlier work
[4] = 0.3 or 3.0 mg/mL, 0.1 to 0.5 mL into bronchial walls

Compound | Findings in bronchial or bronchiolar walls ([1]; pig, in vivo) | Gross or histopathological changes in the lung related to toxic effects ([1]; pig, in vivo) | Inflammatory cell infiltrates in lung sections (considered a background change) ([1]; pig, in vivo) | Effect of injection into methacholine-narrowed segments (bronchodilation) [2] | also measured
α-1-antitrypsin [A1AT] | no abnormal findings | did not induce any gross or histopathological changes | minimal multifocal inflammatory cell infiltrates |  | Histopathological examination of the lung tissues ([1]; pig, in vivo): normal lung architecture
CC(=O)OC(C)C[N+](C)(C)C (centres unmarked) [methacholine] |  |  |  |  | Duration of bronchoconstriction [2, 4]: more than 30 minutes; Effect of injection on the airway (bronchoconstriction) [2, 4]: immediate bronchoconstriction
CC(C)(C)NC[C@H](O)c1ccc(O)c(CO)c1 [levalbuterol] |  |  |  | immediate bronchodilation | 
C[N+]1(C)[C@@H]2C[C@@H](OC(=O)C(O)(c3cccs3)c3cccs3)C[C@H]1[C@@H]1O[C@@H]12 [tiotropium bromide] |  |  |  | immediate bronchodilation | 
C[C@@H]1C[C@H]2[C@@H]3CCC4=CC(=O)C=C[C@]4(C)[C@@]3(F)[C@@H](O)C[C@]2(C)[C@@]1(O)C(=O)CO [Dexamethasone] | no abnormal findings | did not induce any gross or histopathological changes | minimal multifocal inflammatory cell infiltrates |  | Histopathological examination of the lung tissues ([1]; porcine, injections in lung lobes at low, medium and high doses, sacrificed on day 30): normal lung architecture
CN(Cc1cnc2nc(N)nc(N)c2n1)c1ccc(C(=O)N[C@@H](CCC(=O)O)C(=O)O)cc1 [MTX, Methotrexate] |  |  |  |  | Onset of action ([3]; patients): 4-6 weeks; Patients having some response [3]: 70%
